The source of these data is patent US9127040B2, “Regulation of sodium channels by PLUNC proteins” (The University of North Carolina at Chapel Hill, priority 2011, dated 2015).

Experiment [1] concerns the target T1, ENaC (Homo sapiens, UniProt P37088+P51168+P51170).
T1 construct: measured the transepithelial voltage under thin film conditions in human bronchial epithelial cultures; endogenous in cells; host or cells: primary human bronchial epithelial cultures (normal or CF donors)
T1 sequence (P37088 1-669): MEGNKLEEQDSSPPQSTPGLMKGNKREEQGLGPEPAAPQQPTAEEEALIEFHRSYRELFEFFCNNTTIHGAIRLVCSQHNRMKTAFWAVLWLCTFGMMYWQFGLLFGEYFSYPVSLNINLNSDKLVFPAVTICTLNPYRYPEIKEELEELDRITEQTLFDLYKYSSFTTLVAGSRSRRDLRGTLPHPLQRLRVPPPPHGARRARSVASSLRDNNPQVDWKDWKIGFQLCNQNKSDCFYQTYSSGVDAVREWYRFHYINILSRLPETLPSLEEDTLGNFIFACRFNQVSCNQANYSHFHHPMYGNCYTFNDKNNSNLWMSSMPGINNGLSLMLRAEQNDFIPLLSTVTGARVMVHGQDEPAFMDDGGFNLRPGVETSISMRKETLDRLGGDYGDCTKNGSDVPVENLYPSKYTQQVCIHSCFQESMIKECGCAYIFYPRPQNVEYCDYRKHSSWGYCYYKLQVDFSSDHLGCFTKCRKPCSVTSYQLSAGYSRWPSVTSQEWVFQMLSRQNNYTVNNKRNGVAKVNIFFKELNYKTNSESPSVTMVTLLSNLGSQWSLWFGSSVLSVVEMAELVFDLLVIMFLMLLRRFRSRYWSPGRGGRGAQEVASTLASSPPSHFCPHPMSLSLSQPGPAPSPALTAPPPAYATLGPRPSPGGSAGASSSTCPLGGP
T1 sequence (P51168 1-640): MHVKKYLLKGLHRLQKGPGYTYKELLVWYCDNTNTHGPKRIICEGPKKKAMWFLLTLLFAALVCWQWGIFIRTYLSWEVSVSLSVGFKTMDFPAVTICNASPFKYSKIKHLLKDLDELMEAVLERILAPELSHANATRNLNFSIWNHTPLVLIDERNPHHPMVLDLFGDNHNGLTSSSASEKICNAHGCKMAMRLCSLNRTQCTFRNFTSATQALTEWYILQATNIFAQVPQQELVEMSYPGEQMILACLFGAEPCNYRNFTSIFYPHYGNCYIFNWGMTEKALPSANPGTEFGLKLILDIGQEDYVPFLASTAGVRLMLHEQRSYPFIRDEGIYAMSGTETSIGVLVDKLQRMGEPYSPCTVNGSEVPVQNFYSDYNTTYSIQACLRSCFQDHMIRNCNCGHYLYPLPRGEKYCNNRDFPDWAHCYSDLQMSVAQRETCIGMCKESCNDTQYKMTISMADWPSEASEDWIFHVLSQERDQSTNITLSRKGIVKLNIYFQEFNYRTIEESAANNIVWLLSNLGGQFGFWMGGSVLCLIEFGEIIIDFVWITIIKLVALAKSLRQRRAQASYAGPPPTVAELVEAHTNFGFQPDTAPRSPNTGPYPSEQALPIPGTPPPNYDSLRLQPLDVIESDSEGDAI
T1 sequence (P51170 1-649): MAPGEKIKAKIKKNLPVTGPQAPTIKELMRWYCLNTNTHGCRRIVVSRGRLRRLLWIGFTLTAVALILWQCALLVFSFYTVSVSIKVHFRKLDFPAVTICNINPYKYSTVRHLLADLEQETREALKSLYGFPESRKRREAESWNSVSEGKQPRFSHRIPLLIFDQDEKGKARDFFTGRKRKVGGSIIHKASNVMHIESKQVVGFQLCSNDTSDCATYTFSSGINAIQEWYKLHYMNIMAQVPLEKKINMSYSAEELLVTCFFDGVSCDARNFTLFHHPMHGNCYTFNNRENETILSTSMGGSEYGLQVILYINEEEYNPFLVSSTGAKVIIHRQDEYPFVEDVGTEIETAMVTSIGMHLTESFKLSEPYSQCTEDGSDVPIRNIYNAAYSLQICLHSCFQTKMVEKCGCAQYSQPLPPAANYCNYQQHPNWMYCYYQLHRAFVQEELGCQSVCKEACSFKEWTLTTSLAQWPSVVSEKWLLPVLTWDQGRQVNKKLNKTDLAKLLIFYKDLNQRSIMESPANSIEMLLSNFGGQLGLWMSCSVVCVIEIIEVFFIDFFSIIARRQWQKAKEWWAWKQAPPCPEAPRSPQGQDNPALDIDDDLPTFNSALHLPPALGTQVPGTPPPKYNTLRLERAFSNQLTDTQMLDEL
Description: Transepithelial voltage (PD), thin film conditions, human bronchial epithelial cultures. The format is cell-based. Set-up: reduction of transepithelial voltage: dose or concentration left out as unconfirmed. An excerpt: Tissue procurement and cell culture: Cells were harvested by enzymatic digestion from human bronchial tissue as previously described under a protocol approved by the UNC School of Medicine IRB (Tarran et al., J. Gen. Physiol. 127:591 (2006)). Human excess donor lungs and excised recipient lungs were obtained at the time of lung transplantation from portions of main stem or […] bronchi and cells were harvested by enzymatic digestion. All preparations were maintained at an air-liquid interface in a modified bronchial epithelial medium and used 2-5 weeks after seeding on 12 mm T-Clear inserts (Corning Costar) coated with human placental type VI collagen (Sigma). Phosphate buffered saline (PBS) was used for washing human bronchial epithelial culture mucosal surfaces. HBECs were maintained at an air-liquid interface in a modified bronchial epithelial growth medium (BEGM) with 5% CO2 at 37° C. and used 2-5 weeks after seeding on 12-mm T-clear inserts (Corning-Costar, Corning, N.Y., USA) (Randell, Methods Mol. Biol. 742:285 (2011)).
A single-barreled potential difference-sensing electrode was placed in the airway surface liquid by micromanipulator and used in conjunction with a macroelectrode in the serosal solution to measure transepithelial voltage using a voltmeter (World Precision Instruments). […] Transepithelial resistance was routinely measured using the EVOM system (WPI) as previously described (Tarran et al., J. Gen. Physiol. 127:591 (2006)).

In experiment [2] the target is T1, ENaC. Description: Transepithelial electrical resistance in human bronchial epithelial cultures. The settings on record: 50 ng/ml SPLUNC1 30 min or amiloride 10 min; effects not additive. The format is cell-based. An excerpt:
A single-barreled potential difference-sensing electrode was placed in the airway surface liquid by micromanipulator and used in conjunction with a macroelectrode in the serosal solution to measure transepithelial voltage using a voltmeter (World Precision Instruments). […] Transepithelial resistance was routinely measured using the EVOM system (WPI) as previously described ([…] et al., J. Gen. Physiol. 127:591 (2006)).

The next experiment deals with T2, βENaC (Homo sapiens, UniProt P51168).
T2 construct: expressed in transfected cells; host or cells: HEK293T cells (lysate)
T2 sequence (P51168 1-640): T1 sequence (P51168 1-640)
Description: Biotinylated peptide pull-down of ENaC subunits from HEK293T cells. Format: binding. The note with it: subunits individually expressed, biotinylated peptide. The method, then:
HEK293T cells were transfected with double-tagged human ENaC subunits with HA and V5 epitopes at the N- and C-termini, respectively, in combination with wild-type untagged subunit cDNA. When all three ENaC subunits were expressed, 0.5 μg of each subunit were transfected per well. When expressed individually, 0.75 μg of the subunit were transfected per well. The transfected cells were lysed 24 h later using NP-40 buffer with 1× complete EDTA-free protease inhibitor (Roche, Basel, Switzerland). The lysate was centrifuged at 16,300×g for 15 minutes at 4° C. and the supernatant collected. Protein concentration was determined using the BCA assay and 500 μg of protein plus 0.25 mg peptide and 100 μL of neutravidin were added to a spin column and rotated end-over-end at 4° C. for 24 h (all ThermoFisher Scientific, Rockford, Ill., USA). Flow-through was collected by centrifugation at 1000×g for 30 s. The beads were then washed 5× with NP-40 buffer. Bound protein was eluted by boiling at 95° C. for 10 minutes in 75 μL of 2×LDS NuPAGE sample buffer with 1× sample reducing agent followed by centrifugation at 16,300×g for 2 minutes. Samples were resolved on 4-12% Bis-Tris gels in MES and transferred to a nitrocellulose membrane using iBlot, setting P3 for 8 min (Invitrogen, Carlsbad, Calif., USA). The membrane was probed using 1:1000 anti-V5 antibody (Invitrogen, Carlsbad, Calif., USA) overnight at 4° C. in 3% fish gelatin in TBS-T. The blot was then incubated for 1 h at room temperature with an ECL sheep anti-mouse IgG secondary antibody and detected by ECL reagent (ThermoFisher Scientific, Waltham, Mass., USA) or by incubation with a goat anti-mouse IRDye secondary antibody and analyzed by an Odyssey infrared imaging system (LI-COR Biosciences, Lincoln, Nebr., USA).
Peptide pull-down assays were performed as described above. Samples were eluted by the addition of 100 μL of 0.1 M sodium citrate, pH 5.5, 0.1% SDS to the beads and incubating at 100° C. for 2 minutes, followed by centrifugation at 16,300×g for 2 minutes. […]

For experiment [3], the target named is T1, ENaC. Description: ASL height 6 h after exposure, alanine scan of S18. The format is cell-based. On the procedure:
To label the ASL, PBS containing 10 kDa Rhodamine dextran (0.2-2 mg/mL; Invitrogen, Carlsbad, Calif., USA) was added to HBEC mucosal surfaces as previously described (Tarran et al., Mol. Cell 8:149 (2001)). When added, peptides with or without 100 nM neutrophil elastase, 1 U/mL aprotinin, activated neutrophil supernatant (ANS) (Haynes et al., Am. J. Physiol. Heart Circ. Physiol. 294:H379 (2008)) or 10 μM sivelestat (Sigma-Aldrich, St Louis, Mo., USA) were added to the mucosal surface along with the Rhodamine dextran. Bumetanide (100 μM) was added to the serosal solution.
ASL height was measured 6 h after exposure to vehicle, control peptide, S18 or S18 with specific residues mutated to alanine as outlined in FIG. 31. […] NB, G1, G2 and A18 were not mutated. […] All n=6.

The next experiment relates to CF HBECs. The note with it: 8 h ASL height.
In another experiment the test system is trypsin. Description: Cell-free fluorogenic assay, trypsin cleavage of BGAR-MCA. The note with it: 50 ng/ml rSPLUNC1 or 2 U/ml aprotinin; 1.0 or 0.3 U/ml trypsin. The format is biochemical. The method, then: (§1) For cell-free assays, reactions were carried out in 50 μl Ringer in a 96 well plate format with 100 μM BGAR-MCA. To measure endogenous protease activity in human bronchial epithelial cultures, 30 μl Ringer with 100 μM BGAR-MCA were placed directly onto the mucosal surfaces of human bronchial epithelial cultures grown on 12 mm T-clear inserts and the cultures were assayed in 12 well plates.

Experiment [4] has as its target T3, αENaC-eGFP and βENaC-mCherry (Homo sapiens, UniProt P37088+P51168).
T3 construct: expressed in transfected cells
The experiment can be described thus: Acceptor-photobleaching FRET between fluorescently tagged ENaC subunits. The format is cell-based. The settings on record: one hour of exposure. From the text:
Ai, cartoon of αENaC-eGFP and βENaC-mCherry under basal conditions (γENaC not shown). Aii We hypothesize that S18 binding to the extracellular loop of βENaC (1) induces a conformational change in ENaC which is reflected as altered intracellular FRET (2). This change may facilitate NEDD4-2-induced ubiquitination (3), leading to internalization of αβγENaC (4). […] In contrast, exposure to aprotinin had no effect. All n=8-10. C, Typical confocal images of HEK cells expressing αγENaC and βENaC-eGFP before and 1 h after 100 μM S18. Cell outlines are traced in white.
Since ENaC is regulated by NEDD4-2 binding to its C-termini, which leads to ubiquitination of its N-termini and internalization, we propose that S18 causes a conformational change in ENaC, leading to increased ubiquitination followed by internalization (FIG. 21A). As a first step towards understanding the mechanism of action of SPLUNC1, we performed FRET on fluorescently tagged ENaCs. […] Furthermore, βENaC-eGFP internalized upon S18 binding (FIG. 21C), consistent with our surface biotinylation data from oocytes.

A further experiment relates to serine proteases. Description: Endogenous protease activity (BGAR-MCA cleavage) on mucosal surface of human bronchial epithelial cultures. The format is cell-based. The method, then:
as §1

Description for CF HBECs: To label airway surface liquid, Ringer containing Texas Red-dextran (2 mg/ml; Invitrogen) was added to human bronchial epithelial culture mucosal surfaces. Perfluorocarbon was added mucosally to prevent evaporation of the airway surface liquid and the culture placed in a chamber containing 100 μl Ringer on the stage of a Leica SP5 confocal microscope with a 63× glycerol immersion objective. 5 points per culture were scanned and an average airway surface liquid height determined. For confocal microscopy human bronchial epithelial cultures were bathed serosally in a modified Ringer solution containing (mM): 116 NaCl, 10 NaHCO3, 5.1 KCl, 1.2 CaCl2, 1.2 MgCl2, 20 TES, 10 glucose, pH 7.4). At all other times, human bronchial epithelial cultures were maintained in a modified BEGM growth medium which contained 24 mM NaHCO3 gassed with 5% CO2.

On to `N=C(N)NC(=O)c1nc(Cl)c(N)nc1N` [amiloride, reference compound], for which, at ENaC [1] (amiloride for 10 min (FIG. 4 legend), n=12), the “reduction of transepithelial voltage” value was 54%. Moreover, the “increase of transepithelial electrical resistance” value on ENaC [2] is approximately 33%.

Turning to “ADGGLLLLNNPPPPQTVV (Control peptide sequence) [ABC, reference compound]”, the “binding to βENaC (pull-down)” value in the experiment with βENaC is recorded as “No β-ENaC was observed in the elution”. The ASL height result with ENaC [3] is given as “no effect on ASL height”.

For aprotinin [reference compound], the “rate of inhibition of the transepithelial voltage” value on ENaC [1] (rSPLUNC1 vs aprotinin addition, effects not additive) was “identical rates”. For the same molecule, the “CF ASL hyperabsorption” value in the experiment with CF HBECs was “reduces CF ASL hyperabsorption”. For the same molecule, the “CF ASL hyperabsorption in the presence of neutrophil elastase” value in the experiment on CF HBECs (neutrophil elastase) was “did not prevent neutrophil elastase from activating ENaC”. Besides, in the experiment with trypsin, the “inhibition of trypsin cleavage of fluorogenic substrate BGAR-MCA” value is reported as approximately 100%. For the same molecule, in experiment [4], the “FRET between αENaC-eGFP and βENaC-mCherry” value was “no effect”. Also, in the experiment with serine proteases, the “BGAR-MCA cleavage on human bronchial epithelial mucosal surfaces” value was “inhibited”.
